Reference: patent US20210070748A1, “INHIBITORS OF BRUTONS TYROSINE KINASE” (Pharmacyclics LLC, priority 2015, published 2021)
Structures can show the parent of a compound that is named as a salt.

Columns and labels:
Type in all cases: biochemical
BTK-WT = molecular target: T1, BTK-WT (Homo sapiens, UniProt Q06187); test: Btk in vitro inhibitory activity (one of Method A TR-FRET, Method B electrophoretic mobility shift, Method C radiometric filter binding); conditions: Table 10, Formula A-I; read-out: BTK-WT (IC50)
T1 construct: purified from insect cells as a full-length construct containing an N-terminal 6X-His tag; His6 (N); made in house; host or cells: insect cells (baculovirus Sf21 in Method B)
T1 sequence (Q06187 whole entry): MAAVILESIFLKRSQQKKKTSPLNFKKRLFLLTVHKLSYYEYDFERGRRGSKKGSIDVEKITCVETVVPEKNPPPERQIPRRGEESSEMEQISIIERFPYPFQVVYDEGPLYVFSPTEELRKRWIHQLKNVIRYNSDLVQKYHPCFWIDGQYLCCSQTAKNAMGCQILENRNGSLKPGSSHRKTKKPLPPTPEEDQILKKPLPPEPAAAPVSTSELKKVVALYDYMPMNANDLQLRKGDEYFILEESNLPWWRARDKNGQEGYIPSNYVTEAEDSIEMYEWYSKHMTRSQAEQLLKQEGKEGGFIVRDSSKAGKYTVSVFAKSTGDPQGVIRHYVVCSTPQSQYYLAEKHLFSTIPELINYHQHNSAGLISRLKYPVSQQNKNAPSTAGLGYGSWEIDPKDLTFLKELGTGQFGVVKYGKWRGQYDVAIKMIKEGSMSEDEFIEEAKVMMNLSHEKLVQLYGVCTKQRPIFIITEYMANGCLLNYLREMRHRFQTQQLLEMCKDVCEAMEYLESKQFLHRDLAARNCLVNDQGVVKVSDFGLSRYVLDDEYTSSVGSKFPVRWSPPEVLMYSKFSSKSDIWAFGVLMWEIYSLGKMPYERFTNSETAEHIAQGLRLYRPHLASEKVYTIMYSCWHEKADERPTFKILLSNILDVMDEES

JAK3 = molecular target: T2, JAK3 (Homo sapiens, UniProt P52333); test: Inhibition of a panel of kinases, in vitro HotSpot kinase assay: JAK3; conditions: Table 10, Formula A-I; 1 μM ATP; read-out: JAK3 (IC50)
T2 sequence (P52333 1-1124): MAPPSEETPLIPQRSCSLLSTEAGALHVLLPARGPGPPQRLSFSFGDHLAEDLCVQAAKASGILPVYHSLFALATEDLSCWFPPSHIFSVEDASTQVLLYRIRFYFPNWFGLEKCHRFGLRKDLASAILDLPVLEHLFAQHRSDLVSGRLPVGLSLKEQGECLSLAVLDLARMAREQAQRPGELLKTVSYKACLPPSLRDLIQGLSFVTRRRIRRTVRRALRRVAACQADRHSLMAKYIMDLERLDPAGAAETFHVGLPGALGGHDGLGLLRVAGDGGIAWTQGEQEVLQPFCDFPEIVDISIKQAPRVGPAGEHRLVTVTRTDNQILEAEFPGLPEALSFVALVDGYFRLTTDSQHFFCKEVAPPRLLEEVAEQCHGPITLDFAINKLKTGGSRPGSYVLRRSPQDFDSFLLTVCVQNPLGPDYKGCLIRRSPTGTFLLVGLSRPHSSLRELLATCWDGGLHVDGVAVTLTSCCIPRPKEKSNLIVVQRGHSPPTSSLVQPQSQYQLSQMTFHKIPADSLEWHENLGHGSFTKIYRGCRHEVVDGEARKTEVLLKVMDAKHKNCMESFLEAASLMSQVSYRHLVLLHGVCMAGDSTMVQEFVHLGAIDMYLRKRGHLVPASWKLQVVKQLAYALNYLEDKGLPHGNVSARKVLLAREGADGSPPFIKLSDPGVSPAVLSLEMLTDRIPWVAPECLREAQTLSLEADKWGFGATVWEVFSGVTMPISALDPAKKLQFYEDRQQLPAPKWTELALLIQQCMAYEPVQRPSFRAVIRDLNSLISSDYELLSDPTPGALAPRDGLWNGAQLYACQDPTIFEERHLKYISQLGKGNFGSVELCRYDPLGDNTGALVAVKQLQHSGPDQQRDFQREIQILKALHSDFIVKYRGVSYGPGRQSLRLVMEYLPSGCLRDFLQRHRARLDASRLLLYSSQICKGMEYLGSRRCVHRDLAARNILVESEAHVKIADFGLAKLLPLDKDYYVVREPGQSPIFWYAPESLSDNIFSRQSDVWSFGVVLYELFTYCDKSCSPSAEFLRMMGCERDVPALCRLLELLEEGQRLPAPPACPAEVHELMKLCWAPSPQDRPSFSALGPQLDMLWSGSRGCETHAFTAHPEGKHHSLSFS

LCK = LCK (Homo sapiens, UniProt P06239); test: Inhibition of a panel of kinases, in vitro HotSpot kinase assay: LCK; conditions: Table 10, Formula A-I; 1 μM ATP; read-out: LCK (IC50)
Sequence of LCK (P06239 whole entry): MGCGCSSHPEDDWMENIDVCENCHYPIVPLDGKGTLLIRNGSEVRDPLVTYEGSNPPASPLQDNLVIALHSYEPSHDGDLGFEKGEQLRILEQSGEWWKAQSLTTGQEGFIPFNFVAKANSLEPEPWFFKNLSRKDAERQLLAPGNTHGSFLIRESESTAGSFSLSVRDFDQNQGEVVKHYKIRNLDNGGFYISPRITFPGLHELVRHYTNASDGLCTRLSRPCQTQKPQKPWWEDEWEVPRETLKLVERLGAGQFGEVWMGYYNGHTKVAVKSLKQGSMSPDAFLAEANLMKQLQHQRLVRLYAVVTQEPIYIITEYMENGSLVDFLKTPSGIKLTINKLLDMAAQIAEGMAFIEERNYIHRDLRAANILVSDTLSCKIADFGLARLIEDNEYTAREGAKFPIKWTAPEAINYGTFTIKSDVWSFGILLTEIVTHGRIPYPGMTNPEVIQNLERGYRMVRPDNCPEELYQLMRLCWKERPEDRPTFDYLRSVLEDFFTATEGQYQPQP

IC50 (BTK-WT) [nM]	IC50 (JAK3) [nM]	IC50 (LCK) [nM]	Structure (SMILES)
≤ 100	1000 to 10000	> 10000	CN(C)c1ccc(C(=O)N[C@@H]2CCCN(c3cnc(C(N)=O)c(Nc4ccc(S(C)(=O)=O)cc4)n3)C2)cc1 [Example A-44, 5-[(3R)-3-[4-(dimethylamino)benzamido]piperidin-1-yl]-3-[(4-methanesulfonylphenyl)amino]pyrazine-2-carboxamide]
≤ 100	1000 to 10000	> 10000	NC(=O)c1ncc(N2CCC[C@@H](NC(=O)c3ccccc3)C2)nc1Nc1ccc2ncccc2c1 [Example A-45, 5-[(3R)-3-benzamidopiperidin-1-yl]-3-[(quinolin-6-yl)amino]pyrazine-2-carboxamide]
≤ 100	1000 to 10000	> 10000	CN(C)c1ccc(C(=O)N[C@@H]2CCCN(c3cnc(C(N)=O)c(Nc4ccc5ncccc5c4)n3)C2)cc1 [Example A-46, 5-[(3R)-3-[4-(dimethylamino)benzamido]piperidin-1-yl]-3-[(quinolin-6-yl)amino]pyrazine-2-carboxamide hydrochloride]
≤ 100	1000 to 10000	> 10000	CN(C)C(=O)N[C@@H]1CCCN(c2cnc(C(N)=O)c(Nc3ccc4ncccc4c3)n2)C1 [Example A-47, 5-[(3R)-3-[(dimethylcarbamoyl)amino]piperidin-1-yl]-3-[(quinolin-6-yl)amino]pyrazine-2-carboxamide]
≤ 100	< 100	< 100	CC1(c2ccc(Nc3nc(N4CCC[C@@H](NC(=O)c5ccccc5)C4)cnc3C(N)=O)cc2)CCN(C2CC2)CC1 [Example A-48, 5-[(3R)-3-benzamidopiperidin-1-yl]-3-{[4-(1-cyclopropyl-4-methylpiperidin-4-yl)phenyl]amino}pyrazine-2-carboxamide]
≤ 100	100 to 1000	< 100	CN(C)c1ccc(C(=O)N[C@@H]2CCCN(c3cnc(C(N)=O)c(Nc4ccc(C5(C)CCN(C6CC6)CC5)cc4)n3)C2)cc1 [Example A-49, 3-{[4-(1-cyclopropyl-4-methylpiperidin-4-yl)phenyl]amino}-5-[(3R)-3-[4-(dimethylamino)benzamido]piperidin-1-yl]pyrazine-2-carboxamide]
100 to 1000	> 10000	1000 to 10000	Cc1cc(Nc2nc(N3CC[C@@H](NC(=O)c4ccccc4)C3)cnc2C(N)=O)sn1 [Example A-50, 5-[(3R)-3-benzamidopyrrolidin-1-yl]-3-[(3-methyl-1,2-thiazol-5-yl)amino]pyrazine-2-carboxamide]
1000 to 10000	> 10000	> 10000	Cc1cc(Nc2nc(N3CC[C@@H](NC(=O)N(C)C)C3)cnc2C(N)=O)sn1 [Example A-51, 5-[(3R)-3-[(dimethylcarbamoyl)amino]pyrrolidin-1-yl]-3-[(3-methyl-1,2-thiazol-5-yl)amino]pyrazine-2-carboxamide]
≤ 100	100 to 1000	< 100	Cc1cc(Nc2nc(N3CCC[C@@H](N4CCN(c5cccc(Cl)c5)C4=O)C3)cnc2C(N)=O)sn1 [Example A-52, 5-[(3R)-3-[3-(3-chlorophenyl)-2-oxoimidazolidin-1-yl]piperidin-1-yl]-3-[(3-methyl-1,2-thiazol-5-yl)amino]pyrazine-2-carboxamide]
≤ 100	1000 to 10000	< 100	CS(=O)(=O)c1ccc(Nc2nc(N3CCC[C@@H](N4CCN(c5cccc(Cl)c5)C4=O)C3)cnc2C(N)=O)cc1 [Example A-53, 5-[(3R)-3-[3-(3-chlorophenyl)-2-oxoimidazolidin-1-yl]piperidin-1-yl]-3-[(4-methanesulfonylphenyl)amino]pyrazine-2-carboxamide]
≤ 100	1000 to 10000	100 to 1000	Cc1cc(Nc2nc(N3CCC[C@H](NC(=O)c4ccc(N(C)C)cc4)[C@@H]3C)cnc2C(N)=O)sn1 [Example A-54, 5-[(2S,3S)-3-[4-(dimethylamino)benzamido]-2-methylpiperidin-1-yl]-3-[(3-methyl-1,2-thiazol-5-yl)amino]pyrazine-2-carboxamide]
≤ 100	1000 to 10000	1000 to 10000	Cc1cc(Nc2nc(N3CCC[C@H](NC(=O)N(C)C)[C@@H]3C)cnc2C(N)=O)sn1 [Example A-58, 5-[(2S,3S)-3-[(dimethylcarbamoyl)amino]-2-methylpiperidin-1-yl]-3-[(3-methyl-1,2-thiazol-5-yl)amino]pyrazine-2-carboxamide]
≤ 100	1000 to 10000	100 to 1000	C[C@@H]1[C@H](NC(=O)N(C)C)CCCN1c1cnc(C(N)=O)c(Nc2ccc3ncccc3c2)n1 [Example A-59, 5-[(2R,3R)-3-[(dimethylcarbamoyl)amino]-2-methylpiperidin-1-yl]-3-[(quinolin-6-yl)amino]pyrazine-2-carboxamide]
100 to 1000	1000 to 10000	> 10000	C[C@H]1[C@@H](NC(=O)N(C)C)CCCN1c1cnc(C(N)=O)c(Nc2ccc3ncccc3c2)n1 [Example A-60, 5-[(2S,3S)-3-[(dimethylcarbamoyl)amino]-2-methylpiperidin-1-yl]-3-[(quinolin-6-yl)amino]pyrazine-2-carboxamide]
100 to 1000	1000 to 10000	100 to 1000	Cc1cc(Nc2cc(N3CCC[C@@H](NC(=O)c4ccccc4)C3)cnc2C(N)=O)sn1 [Example A-61, 5-[(3R)-3-benzamidopiperidin-1-yl]-3-[(3-methyl-1,2-thiazol-5-yl)amino]pyridine-2-carboxamide]
≤ 100	> 10000	> 10000	Cc1cc(Nc2cc(N3CCC[C@@H](NC(=O)c4ccc(N(C)C)cc4)C3)cnc2C(N)=O)sn1 [Example A-62, 5-[(3R)-3-[4-(dimethylamino)benzamido]piperidin-1-yl]-3-[(3-methyl-1,2-thiazol-5-yl)amino]pyridine-2-carboxamide]
100 to 1000	1000 to 10000	> 10000	Cc1cc(Nc2cc(N3CCC[C@@H](NC(=O)N(C)C)C3)cnc2C(N)=O)sn1 [Example A-64, 5-[(3R)-3-[(dimethylcarbamoyl)amino]piperidin-1-yl]-3-[(3-methyl-1,2-thiazol-5-yl)amino]pyridine-2-carboxamide]
≤ 100	< 100	100 to 1000	Cc1cc(Nc2nc(N3CCC(CNC(=O)N(C)C)CC3)cnc2C(N)=O)sn1 [Example A-75, 5-(4-{[(dimethylcarbamoyl)amino]methyl}piperidin-1-yl)-3-[(3-methyl-1,2-thiazol-5-yl)amino]pyrazine-2-carboxamide]
≤ 100	< 100	100 to 1000	Cc1cc(Nc2nc(N3CCC(CNC(=O)c4ccccc4)CC3)cnc2C(N)=O)sn1 [Example A-76, 3-[(3-methyl-1,2-thiazol-5-yl)amino]-5-{4-[(phenylformamido)methyl]piperidin-1-yl}pyrazine-2-carboxamide]
≤ 100	< 100	100 to 1000	Cc1cc(Nc2nc(N3CCC(CNC(=O)c4ccc(N(C)C)cc4)CC3)cnc2C(N)=O)sn1 [Example A-77, 5-[4-({[4-(dimethylamino)phenyl]formamido}methyl)piperidin-1-yl]-3-[(3-methyl-1,2-thiazol-5-yl)amino]pyrazine-2-carboxamide]
≤ 100	< 100	< 100	C=CC(=O)N[C@@H]1CCCN(c2cnc(C(N)=O)c(Nc3ccc(C4CCN(C5CCCC5)CC4)cc3)n2)C1 [Example A-84, (R)-5-(3-acrylamidopiperidin-1-yl)-3-(4-(1-cyclopentylpiperidin-4-yl)phenylamino)pyrazine-2-carboxamide]
≤ 100	< 100	< 100	C=CC(=O)N[C@@H]1CCCN(c2cnc(C(N)=O)c(Nc3ccc(C4CCN(C5CCCC5)CC4)cc3)n2)[C@@H]1C [Example A-85, 5-((2R,3R)-3-acrylamido-2-methylpiperidin-1-yl)-3-(4-(1-cyclopentylpiperidin-4-yl)phenylamino)pyrazine-2-carboxamide]
